Test results published in publication PMC9081605, “A High-Throughput Toxicity Screen of 42 Per- and Polyfluoroalkyl Substances (PFAS) and Functional Assessment of Migration and Gene Expression in Human Placental Trophoblast Cells” (Frontiers in Toxicology, 2022).

Assays:
Format in all cases: cell-based, human
JEG-3 cells [1] = experiment: Mitochondrial membrane potential, JC-10 assay (HTTS); conditions: for EC50: four-parameter fit, estimates meeting inclusion criteria; for minimal effective concentration: read-out: MMP ↓, lowest concentration at which the mean response value exceeded the mean control value ± 2*SD (rough binning); for MMP relative to vehicle control (rough binning): after 24 h, in at least one concentration
Description: (§1) JEG-3 human choriocarcinoma trophoblastic cells (American Type Culture Collection, VA, United States) were maintained in sterile-filtered Minimum Essential Media (MEM) supplemented with L-glutamine and phenol red (Thermo Fisher Scientific, MA, United States), 10% (v/v) heat-inactivated BenchMark Fetal Bovine Serum (Gemini Bio, CA, United States), 1% (v/v) sodium pyruvate (Thermo Fisher Scientific, MA, United States), and 1% (v/v) penicillin streptomycin (Sigma Aldrich, MO, United States). Cells were maintained in an incubator at 37°C with 5% CO2. JEG-3 cells were cultured in 10 cm tissue culture plates and cell passage numbers were recorded.
(§2) A total of 42 perfluoroalkyl substances (PFAS) were evaluated (Supplementary Table S1 contains source and purity). PFAS stock solutions were maintained in 100% methanol as previous work has shown certain PFAS degrade when stored in dimethyl sulfoxide (DMSO; [Gaballah et al., 2020]). […] The vehicle control group consisted of 97.5% media + 2.5% methanol to match the concentration of methanol in the media at the highest PFAS concentration tested (500 µM). Menadione (50–500 µM) was used as a positive control for cytotoxicity assessment. PFAS were de-identified and assigned random numbers to eliminate bias. Chemical exposure plate maps were designed so that all experimental conditions were tested in at least technical duplicates per plate. The outer edges of each plate received media alone and were excluded from all analyses to avoid edge effects. Each plate map included 14 technical replicates of the vehicle control group and 14 technical replicates of media only. Biological replicates were defined as separate 384 well plates tested on separate days using different cell passages. The experimental workflow is depicted in Supplementary Figure S1.
(§3) JEG-3 cells were counted using a Z2 Coulter Particle Counter (Beckman Coulter, CA, United States) and seeded at a density of 2,500 cells per well in black-walled, clear bottom 384 well plates (Corning, #3764) and allowed to adhere overnight. Approximately 24 h later, 384 well plates were imaged using an IncuCyte Zoom live cell imager (Essen BioScience Inc., MI, United States) to obtain baseline cellular confluence measurements prior to chemical dosing (0 h). Media was removed from wells and replaced with fresh media containing chemical treatments (exposure media) using a Viaflo liquid handling device (Integra Biosciences, NH, United States). Within 30 min of exposure media application, plates were again imaged for cellular confluence using the IncuCyte Zoom. Plates were incubated with exposure media for 24 h and then imaged again using the IncuCyte Zoom (24 h).
The JC-10 assay (Enzo Life Sciences, NY, United States) was used to evaluate mitochondrial membrane potential, the main bioenergetic parameter that regulates respiratory rate, ATP synthesis and reactive oxygen species generation. In cells with polarized mitochondrial membranes, the JC-10 dye localizes to the mitochondrial matrix and forms red fluorescent aggregates (540/590 nm). In cells with depolarized mitochondrial membranes, the JC-10 dye localizes in the cytoplasm and converts to a green fluorescent monomer (490/525 nm). Mitochondrial membrane potential was calculated as the ratio of the green and red fluorescence intensities within a well.
At the end of the 24 h exposure period, exposure media was removed from the plate. The plate wells were then washed with 1x phosphate buffered saline (1x PBS). After washing, the JC-10 reagent was suspended in fresh 1x PBS and 20 µl was added to each well at a final concentration of 20 μM (Enzo Life Sciences, NY, United States). The plate was incubated for 1 h at 37°C, and the fluorescence intensities at excitation/emission wavelengths of 490/525 nm and 540/590 nm were measured using a CLARIOstar (BMG Labtech, Offenburg, Germany) plate reader, respectively.
HTTS data were analyzed using a custom data analysis script in R v 1.2.5019 ([R Core Team, 2019]). […]

JEG-3 cells [2] = experiment: Proliferation, change in confluence 0-24 h (IncuCyte Zoom, HTTS); conditions: for minimal effective concentration: read-out: Prolif ↓, lowest concentration at which the mean response value exceeded the mean control value ± 2*SD (rough binning); for cellular proliferation relative to vehicle control (rough binning): after 24 h, in at least one concentration
Description: as §1, §2, §3
Plate well bottom images were evaluated using automated cell masking. The automated cell masking program was developed using IncuCyte Zoom base software. Cell masking parameters were defined using a training set of JEG-3 cell images obtained prior to conducting the experiments and following IncuCyte Zoom software recommendations. Briefly, the training images were obtained from cell culture plates with varying levels of JEG-3 cellular confluence (ranging from ∼15% confluent to ∼95% confluent). Parameters for the automated cell masking were first manually set by an experimenter for 3-6 images of low (∼15–30%), medium (∼30–70%), and high confluence (∼70% or greater). The training images were then evaluated by the automated masking program and manually checked to ensure the parameters were sufficiently strict to ignore background (e.g., blank space on the plate well bottom) but adequately sensitive to detect cell borders. The masking program was then implemented on the experimental plates to obtain a baseline cellular confluence measurement at 0 h and a second confluence measurement at 24 h. […]

JEG-3 cells [3] = experiment: CellTiter-Glo luminescent cell viability assay (HTTS); conditions: for Viability ↓, lowest concentration at which the mean response value exceeded the mean control value ± 2*SD (rough binning): decrease; for cell viability relative to vehicle control (rough binning): after 24 h, in at least one concentration
Description: as §1, §2, §3
In the same plate evaluated for mitochondrial membrane potential, cell viability measures were duplexed using the CellTiter-Glo (CTG) Luminescent Cell Viability Assay (Promega, WI, United States). CTG reagent was added to each well at a volume of 20 µl. The plate was left at room temperature to incubate for 5 min and then 20 µl from each well was transferred to a low-volume, round-bottom, white 384 well plate (Corning, NY, United States). The CTG reagent lyses cellular and mitochondrial membranes and binds to adenosine triphosphate (ATP) released by cells, which produces a luminescence signal. The intensity of the luminescence was considered a proxy measure for the number of live cells in a well. The luminescence intensities were measured using the CLARIOstar plate reader.
HTTS data were analyzed using a custom data analysis script in R v 1.2.5019 ([R Core Team, 2019]). Briefly, raw data points corresponding to the confluence measurements at 0 and 24 h, the fluorescence intensities corresponding to MMP, and the relative luminescence units (RLU) corresponding to cell viability were imported directly from Microsoft Excel into the R programming environment, RStudio. Separate plates run on separate days using different JEG-3 passages were considered as biologic replicates. […]

[4] = Homo sapiens, JEG-3, 24 h, read-out: MMP EC50 ± SD, JEG-3 cells, 24 h exposure
[5] = Homo sapiens, JEG-3, 24 h, read-out: Proliferation EC50 ± SD, JEG-3 cells, 24 h exposure, four-parameter fit, estimates meeting inclusion criteria
[6] = Homo sapiens, JEG-3, 24 h, read-out: Viability EC50 ± SD, JEG-3 cells, 24 h exposure, four-parameter fit, estimates meeting inclusion criteria

SMILES: O=S(=O)(O)CCC(F)(F)C(F)(F)C(F)(F)C(F)(F)C(F)(F)C(F)(F)C(F)(F)C(F)(F)F [8:2 Fluorotelomer sulfonic acid]
- EC50 (JEG-3 cells [1]; [4]): 331 ± 5.7 µM
- EC50 (JEG-3 cells [2]; [5]): 321 ± 171 µM
- EC50 (JEG-3 cells [3]; [6]): 160 ± 45.7 µM
- EC50 (JEG-3 cells [3]; Homo sapiens, JEG-3, 24 h, read-out: viability EC50 ± SE, JEG-3 cells, 24 h): 160 ± 46 µM

SMILES: O=C(O)C(F)(F)C(F)(F)C(F)(F)C(F)(F)C(F)(F)C(F)(F)C(F)(F)C(F)F [9-H-Perfluorononanoic acid]
- EC50 (JEG-3 cells [1]; JEG-3 cells, 24 h exposure, read-out: MMP EC50 ± SD): 187 ± 27.6 µM
- EC50 (JEG-3 cells [2]; JEG-3 cells, raw model output including fits that did not meet inclusion criteria, read-out: Proliferation EC50 ± SD (raw values)): 1230 ± 118 µM
- EC50 (JEG-3 cells [3]; JEG-3 cells, 24 h exposure, four-parameter fit, estimates meeting inclusion criteria, read-out: Viability EC50 ± SD): 350 ± 43.1 µM

SMILES: O=C(O)C(F)(F)OC(F)(F)C(F)(F)OC(F)(F)C(F)(F)OC(F)(F)F [Perfluoro-3,6,9-trioxadecanoic acid]
- minimal effective concentration (JEG-3 cells [1]; Homo sapiens, JEG-3, 24 h): 450 µM
- MMP relative to vehicle control (rough binning) (JEG-3 cells [1]): reduced MMP
- minimal effective concentration (JEG-3 cells [2]; Homo sapiens, JEG-3, 24 h): 350 µM
- EC50 (JEG-3 cells [2]; [5]): 303 ± 30.1 µM
- cellular proliferation relative to vehicle control (rough binning) (JEG-3 cells [2]): reduced cellular proliferation
- EC50 (JEG-3 cells [3]; [6]): 267 ± 26.8 µM

SMILES: O=C(O)C(F)(F)OC(F)(F)C(F)(F)OC(F)(F)C(F)(F)OC(F)(F)C(F)(F)C(F)(F)C(F)(F)F [Perfluoro-3,6,9-trioxatridecanoic acid]
- minimal effective concentration (JEG-3 cells [1]; Homo sapiens, JEG-3, 24 h): 50 µM
- MMP relative to vehicle control (rough binning) (JEG-3 cells [1]): reduced MMP
- minimal effective concentration (JEG-3 cells [2]; Homo sapiens, JEG-3, 24 h): 400 µM
- EC50 (JEG-3 cells [2]; [5]): 332 ± 34.1 µM
- cellular proliferation relative to vehicle control (rough binning) (JEG-3 cells [2]): reduced cellular proliferation
- EC50 (JEG-3 cells [3]; [6]): 195 ± 54.6 µM
- Viability ↓, lowest concentration at which the mean response value exceeded the mean control value ± 2*SD (rough binning) (JEG-3 cells [3]; JEG-3 cells, 24 h): 300 µM
- cell viability relative to vehicle control (rough binning) (JEG-3 cells [3]): reduced cell viability

SMILES: O=C(O)C(F)(F)OC(F)(F)C(F)(F)OC(F)(F)C(F)(F)C(F)(F)C(F)(F)F [Perfluoro-3,6-dioxadecanoic acid]
- EC50 (JEG-3 cells [1]; [4]): 350 ± 16.1 µM
- minimal effective concentration (JEG-3 cells [1]; Homo sapiens, JEG-3, 24 h): 400 µM
- MMP relative to vehicle control (rough binning) (JEG-3 cells [1]): reduced MMP
- minimal effective concentration (JEG-3 cells [2]; Homo sapiens, JEG-3, 24 h): 300 µM
- EC50 (JEG-3 cells [2]; [5]): 283 ± 25.7 µM
- cellular proliferation relative to vehicle control (rough binning) (JEG-3 cells [2]): reduced cellular proliferation
- Viability ↓, lowest concentration at which the mean response value exceeded the mean control value ± 2*SD (rough binning) (JEG-3 cells [3]; JEG-3 cells, 24 h): 400 µM
- cell viability relative to vehicle control (rough binning) (JEG-3 cells [3]): reduced cell viability

SMILES: O=C(O)C(F)(F)OC(F)(F)C(F)(F)OC(F)(F)F [Perfluoro-3,6-dioxaheptanoic acid]
- EC50 (JEG-3 cells [1]; [4]): 368 µM
- minimal effective concentration (JEG-3 cells [1]; Homo sapiens, JEG-3, 24 h): 400 µM
- MMP relative to vehicle control (rough binning) (JEG-3 cells [1]): reduced MMP
- EC50 (JEG-3 cells [1]; read-out: MMP EC50 ± SD, JEG-3 cells, 24 h exposure): 368 ± 22.6 µM
- minimal effective concentration (JEG-3 cells [2]; Homo sapiens, JEG-3, 24 h): 400 µM
- EC50 (JEG-3 cells [2]; [5]): 351 ± 11.8 µM
- cellular proliferation relative to vehicle control (rough binning) (JEG-3 cells [2]): reduced cellular proliferation
- EC50 (JEG-3 cells [3]; [6]): 326 ± 85.7 µM
- Viability ↑, lowest concentration at which the mean response value exceeded the mean control value ± 2*SD (rough binning) (JEG-3 cells [3]; JEG-3 cells, 24 h, increase): 200 µM
- cell viability relative to vehicle control (rough binning) (JEG-3 cells [3]): increased cell viability
